“Also recorded” adds a separate entry of the source.
Columns and labels:
[1] = tested on: ACP-induced hepatotoxicity; assay: Protection from ACP-induced hepatotoxicity in mice (plasma ALT levels); format: in vivo, Male Swiss-Webster mice
Method: Male Swiss-Webster mice weighing 24-34 g were administered ACP [360 mg (or 2.45 mmol)/kg, i.p.].
In protocol 4′B, a priming dose of the prodrug (1.25 mmole/kg, i.p.) was administered 60 min prior to ACP followed by a subsequent dose (2.50 mmol/kg) 30 min post-ACP.
In protocol 3′B, the pre- and post-ACP doses were reversed.
In protocol 1, a single dose of drug was administered 30 min post-ACP.
Protocol 1′ is identical to 3′B except that the pH of the injection solution was not adjusted. In the B series, the pH of the injection solution was adjusted to neutrality with dilute, aqueous NaOH or HCl

[2] = unlike GSH or its carboxy esters with free -SH groups that are subject to oxidation; refs (9, 17); cited from earlier work

## N[C@H](CSSC[C@H](NC(=O)CC[C@H](N)C(=O)O)C(=O)NCC(=O)O)C(=O)O [D-CySSG]
[1]; FIG. 1, mouse model, protocol 4'B
  hepatoprotection against ACP toxicity: lack of significant activity; also recorded: not hepatoprotective; also recorded: lack of hepatoprotection
[1]; FIG. 1, protocol 4'B: prodrug 1.25 mmole/kg i.p. 60 min prior to ACP, 2.50 mmol/kg 30 min post-ACP, ACP 360 mg/kg i.p., ALT 24 hrs post-ACP
  plasma alanine aminotransferase (ALT) levels of ACP-treated mice: statistically similar to that for ACP alone; also recorded: comparable to that for ACP alone

## N[C@@H](CCC(=O)N[C@@H](CSSC[C@H](N)C(=O)O)C(=O)NCC(=O)O)C(=O)O [L-CySSG, L-cysteine-GSH disulfide]
[2]
  stability: stable

## CCOC(=O)CNC(=O)C(CSC(C)=O)NC(=O)CCC(N)C(=O)O (stereo not shown) [S-Ac-GSH-OEt, S-acetylglutathione ethyl ester]
[1]; FIGS. 1, 3 and 4
  usefulness for treating/preventing oxidative stress in the mouse model: useful for treating oxidative stress

Reference: patent US9173917B2, “Methods for reducing oxidative stress in a cell with a sulfhydryl protected glutathione prodrug” (Max International, LLC, priority 2003, dated 2015)
